From PubChem BioAssay (NCI)
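Dose response: 5 concentrations. Exposure: 48 h. Format: 96-well plates. Endpoint: linear interpolation; highest concentration if not reached. GI50 marks 50% less growth. At the TGI there is no net growth.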

Columns and labels:
Assay in all cases: NCI anticancer screen, dose series, 48 h
[1] = test system: HCC-2998 colon
[2] = test system: HT29 colon
[3] = test system: TK-10 renal
[4] = test system: NCI-H23 lung
[5] = test system: SW-620 colon
[6] = test system: UO-31 renal
[7] = test system: SN12C renal
[8] = test system: UACC-257 melanoma
[9] = test system: MDA-MB-231 breast

SMILES | TGI [1] [µM] | TGI [2] [µM] | TGI [3] [µM] | TGI [4] [µM] | TGI [5] [µM] | TGI [6] [µM] | TGI [7] [µM] | TGI [8] [µM] | GI50 [1] [µM] | GI50 [2] [µM] | GI50 [3] [µM] | GI50 [4] [µM] | GI50 [5] [µM] | GI50 [6] [µM] | GI50 [7] [µM] | GI50 [9] [µM] | GI50 [8] [µM] | TGI [9] [µM]
O=C(/C=C/c1ccccc1)Oc1cccc2cccnc12 | > 100 | 29.3 | > 100 | 20 | 21.9 | > 73 | > 58.6 | 18.2 |  |  |  |  |  |  |  |  |  | 
C/C=C/C(C#N)O[Si](C)(C)C (configuration not stated) | > 100 | > 100 | > 100 | > 100 | > 100 | > 100 | > 100 | > 100 |  |  |  |  |  |  |  |  |  | 
Cc1nc(C(N)=O)c(N)n1CCN1CCN(C(=O)CCCCCCCCCCNC2N=CNc3nc[nH]c32)CC1 (configuration not stated) | > 100 | > 100 | > 100 | > 100 | > 100 | > 100 | > 100 | 45.7 |  |  |  |  |  |  |  |  |  | 
CCSC1=NC2C(N(CC)C(=O)N2CC)N1/N=C/C=C/c1ccccc1[N+](=O)[O-] (configuration not stated) | 39.6 | > 100 | > 100 | > 100 | > 100 | > 100 | > 100 | > 100 | 0.362 | 0.16 | 36.8 | 0.351 | 0.186 | 0.664 | 0.401 | 0.312 | 23.8 | 
COC1=NCc2ccccc2-c2ccccc21 |  | > 100 | > 100 | > 100 |  | > 100 | > 100 | > 100 |  |  |  |  |  |  |  |  |  | 
N#CC(N)=Nc1ccccc1 | > 100 | > 100 | > 100 | > 100 | > 100 | > 100 | > 100 |  |  |  |  |  |  |  |  |  |  | 
CN1N=CSC12C(=O)N(c1ccccc1)C(=O)N2c1ccccc1 (configuration not stated) | > 100 | > 100 | > 100 | > 100 | > 100 | > 100 | > 100 | > 100 |  |  |  |  |  |  |  |  |  | 
Cc1c(/C=N/NC(=O)c2ccccc2O)c(=O)n(-c2ccccc2)n1C | > 100 | > 100 | > 100 | > 100 | > 100 | > 100 | > 100 | > 100 |  |  |  |  |  |  |  |  |  | 
COC(=O)/C(=N\NC(C)(C)C)C(C(=O)OC)C(=O)C(=O)Nc1cc(Cl)ccc1Cl (configuration not stated) | > 100 | > 100 | > 100 | > 100 | > 100 | > 100 | > 100 | > 100 |  |  |  |  |  |  |  |  |  | 
CN(C(=O)/C=C/c1ccccc1)C1C2CN3CCC(O2)C13 (configuration not stated) | > 100 | > 100 | > 100 | > 100 | > 100 | > 100 | > 100 | > 100 |  |  |  |  |  |  |  |  |  | 
Cn1c(=O)c(N=Nc2c(=O)n(C)c(=O)n3c2[nH]c2ccccc23)c2[nH]c3ccccc3n2c1=O | > 100 | > 100 | > 100 | > 100 | > 100 | > 100 |  | > 100 |  |  |  |  |  |  |  |  |  | 
COC(=O)C1=CO[C@@H](OC2CC(CO)C(O)C(O)C2O)[C@@H]2[C@@H](C)[C@@H](OC(=O)/C=C/c3ccccc3)[C@@H](O)[C@H]12 (some centres not stated) (tested in a mixture with another compound) | > 100 | > 100 | > 100 | > 100 | > 100 | > 100 | > 100 | > 100 |  |  |  |  |  |  |  |  |  | 
O=C(Oc1cccnc1)c1cccnc1Nc1ccnc(C(F)(F)F)c1 | 35.3 | > 100 | > 100 | > 100 | > 100 | 81.5 | > 100 | > 100 | 16.8 | 30.8 | 17.2 | 6.38 | 5.47 | 10 | 6.48 | 14.1 | 27.1 | > 100
Nc1ncnc2c1ncn2C1OC(CSCC(F)(F)F)C(O)C1O (configuration not stated) | > 100 | > 100 | > 100 | > 100 | > 100 | > 100 | > 100 | > 100 |  |  |  |  |  |  |  |  |  | 
O=C(O)CCNS(=O)(=O)c1ccc(NC(=O)c2ccccc2)cc1 | > 100 | > 100 | > 100 | > 100 | > 100 | > 100 | > 100 | > 100 |  |  |  |  |  |  |  |  |  | 
O=C(NCCCOC(=O)CCCCCCCCC(=O)OCCCNC(=O)NC(=O)c1c[nH]c(=O)[nH]c1=O)NC(=O)c1c[nH]c(=O)[nH]c1=O | > 100 |  | > 100 | > 100 | > 100 |  | > 100 | > 100 |  |  |  |  |  |  |  |  |  | 
O=C(COc1ccccc1Cl)N1N=C(c2ccc(Cl)cc2)CC1(O)c1ccccc1 (configuration not stated) | > 100 | > 100 | > 100 | > 100 | > 100 | > 100 | > 100 | > 100 |  |  |  |  |  |  |  |  |  | 

SMILES | TGI [1] [µM] | TGI [2] [µM] | TGI [3] [µM] | TGI [4] [µM] | TGI [5] [µM] | TGI [6] [µM] | TGI [7] [µM] | TGI [8] [µM] | GI50 [1] [µM] | GI50 [2] [µM] | GI50 [3] [µM] | GI50 [4] [µM] | GI50 [5] [µM] | GI50 [6] [µM] | GI50 [7] [µM] | GI50 [9] [µM] | GI50 [8] [µM] | TGI [9] [µM]
C[N+](C)(C)CCC(=O)CC[N+](C)(C)C | 53.9 | 31.6 | 34.6 | 55.9 | 35.4 | > 100 |  | 35.9 |  |  |  |  |  |  |  |  |  | 
C=C(c1ccccc1)C1(O)CCCCC1N (configuration not stated) | > 100 | > 100 | > 100 | > 100 | > 100 | > 100 | > 100 | > 100 |  |  |  |  |  |  |  |  |  | 
COc1ccc2nccc(C3=CCC4CCN(C(=O)c5ccccc5)C3C4)c2c1 (configuration not stated) | > 100 | > 100 | > 100 | > 100 | > 100 | > 100 | > 100 | > 100 |  |  |  |  |  |  |  |  |  | 
Cn1ccnc1CCc1c(Cl)cccc1Cl |  | > 100 | > 100 | > 100 | > 100 | > 100 | > 100 | > 100 |  |  |  |  |  |  |  |  |  | 
O=C(N/N=C/c1ccccc1O)N/N=C/c1ccccc1O | > 100 | > 100 | > 100 | > 100 | > 100 | > 100 | > 100 | > 100 |  |  |  |  |  |  |  |  |  | 
COc1cc(Cl)cc(=O)c(O)c1OC | > 100 | > 100 | > 100 | > 100 |  | > 100 | > 100 | > 100 |  |  |  |  |  |  |  |  |  | 
COC(=O)c1sc(C(=O)OC)c2c1CS(=O)C2 | > 100 | > 100 | > 100 | > 100 | > 100 | > 100 |  | > 100 |  |  |  |  |  |  |  |  |  | 
Cc1c(OC(C)C(=O)O)ccc2c(-c3ccccc3)cc(=O)oc12 (configuration not stated) | > 100 | > 100 | > 100 | > 100 | > 100 | > 100 | > 100 | > 100 |  |  |  |  |  |  |  |  |  | 
CCc1c(C#N)c(=O)[nH]c(=O)n1CCN1CCN(C(=O)NCCCCCCNC(=O)N2CCN(CCn3c(CC)c(C#N)c(=O)[nH]c3=O)CC2)CC1 | > 100 | > 100 | > 100 |  | > 100 |  | > 100 | > 100 |  |  |  |  |  |  |  |  |  | 
Cc1cc2c(C)nn(Cc3ccccc3)c2c(C(=O)O)c1C | > 100 |  | > 100 | > 100 | > 100 | > 100 | > 100 | > 100 |  |  |  |  |  |  |  |  |  | 
CCOC(=O)NC(=O)c1cn(CCN2CCN(C(=O)NCCCCCCNC(=O)N3CCN(CCn4cc(C(=O)NC(=O)OCC)c(=O)[nH]c4=O)CC3)CC2)c(=O)[nH]c1=O | > 100 | > 100 | > 100 | > 100 | > 100 | > 100 | > 100 | > 100 |  |  |  |  |  |  |  |  |  | 
O=C1Nc2ccccc2C1(O)C/C(=N/O)c1ccc2ccccc2c1 (configuration not stated) | > 100 | > 100 | > 100 | > 100 | > 100 | > 100 | > 100 | > 100 |  |  |  |  |  |  |  |  |  | 
CC[O-].CC[O-].O=C([CH-]C(=O)c1ccccc1)CCCCCCCCC(=O)[CH-]C(=O)c1ccccc1.[Ti+4] | > 100 | > 100 | > 100 | > 100 | > 100 |  | > 100 | > 100 | > 100 | > 100 | > 100 | 92 | > 100 |  | > 100 |  | > 100 | 
CCc1cccc(C)c1NS(=O)(=O)c1ccccc1 | > 100 | > 100 | > 100 | > 100 | > 100 | > 100 |  | > 100 |  |  |  |  |  |  |  |  |  | 
CCOC(=O)Cc1nc2ccc3c(c2[nH]c1=O)C(=O)c1ccccc1C3=O | > 100 | > 100 | > 100 | > 100 | > 100 | > 100 | > 100 | > 100 |  |  |  |  |  |  |  |  |  | 
c1cc[c]([Sn][c]2ccccc2)cc1 | 18.3 | 37 | 51.2 | 23.3 | 45 | 38.5 | 42.1 | > 72.9 | 13.8 | 20.2 | 20.1 | 15 | 21.6 | 19.4 | 20 |  | 29.6 | 
CC(=O)c1c(O)c(C)c(O)c(Cc2c(O)c3c(c(C(=O)/C=C/c4ccccc4)c2O)OC(C)(C)C=C3)c1O | 11.1 | 13.1 | > 100 | 14 | 14.8 | 8.19 | 9.09 | 7.16 |  |  |  |  |  |  |  |  |  | 6.86
